Measurements as given in publication PMC2857964 (Bioorganic & medicinal chemistry letters, 2010).

Molecular target: hMC4R (Homo sapiens, UniProt P32245)
Experiment: Saturation binding of Eu-labeled probe to Hek293 cells overexpressing hMC4R
Conditions: Kd of labeled ligand compared with parental ligand MSH(4)

hMC4R, sequence (P32245 whole entry): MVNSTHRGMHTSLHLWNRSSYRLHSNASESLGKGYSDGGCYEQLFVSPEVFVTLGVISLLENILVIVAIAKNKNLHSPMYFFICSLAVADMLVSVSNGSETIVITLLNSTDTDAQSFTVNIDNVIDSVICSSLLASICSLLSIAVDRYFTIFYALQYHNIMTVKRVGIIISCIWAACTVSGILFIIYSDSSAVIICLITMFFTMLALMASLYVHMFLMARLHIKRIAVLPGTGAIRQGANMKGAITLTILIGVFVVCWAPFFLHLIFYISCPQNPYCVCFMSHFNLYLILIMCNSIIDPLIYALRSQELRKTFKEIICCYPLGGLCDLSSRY

N=C(N)NCCC[C@H](NC(=O)[C@@H](Cc1ccccc1)NC(=O)[C@H](Cc1c[nH]cn1)NC(=O)COCC(=O)NCCCOCCOCCOCCCNC(=O)CN(CCN(CCN(CC(=O)O)CC(=O)O)CC(=O)O)CC(=O)O)C(=O)N[C@@H](Cc1c[nH]c2ccccc12)C(N)=O [compound 1, Eu-DTPA-PEGO-His-DPhe-Arg-Trp-NH2]
Affinity for hMC4R, fold lower than the parental ligand: approximately 10 fold
